Results from patent EP0729465B1, “PYRONE DERIVATIVES AS PROTEASE INHIBITORS AND ANTIVIRAL AGENTS” (PARKE, DAVIS & COMPANY, priority 1993, dated 1995).
pEC50, pIC50: −log10 of the molar value. Values after ≈ are worked out from the molar mass of the structure shown.

Tests used:
[1] = tested on: Enterococcus foecalis MGH2; assay: Antibacterial activity, microtitration dilution method (MIC); format: cell-based
Source text: (§1) The compounds of the invention display antibacterial activity when tested by the microtitration dilution method as described in Heifetz, et al., Antimicr. Agents. & Chemoth. 6:124 (1974) which is incorporated herein by reference.
(§2) By use of the above referenced method, the following minimum inhibitory concentration values (MICs in µg/mL) were obtained for representative compounds of the invention vs. clinically relevant gram positive pathogens which have become highly resistant to conventional therapy in recent years.

[2] = tested on: Staphylococcus aureus H228; assay: as above; format: cell-based
Source text: as §1, §2

[3] = tested on: Streptococcus pyogenes C203; assay: as above; format: cell-based
Source text: as §1, §2

[4] = tested on: Staphylococcus aureus UC-76; assay: as above; format: cell-based
Source text: as §1, §2

[5] = tested on: Streptococcus pneumonia 5V-1; assay: as above; format: cell-based
Source text: as §1, §2

HIV-1iiib = assay: Anti-HIV-1 activity, acute infection of H9 cells; format: cell-based; conditions: Human immunodeficiency virus 1; H9 cell line infected with HIV-1iiib; reverse transcriptase assay at 4 and 7 days post infection; read-out: Concentration for 50% Protection
Procedure: Using the general methods of Pauwels et al., (J. Virol. Methods, 16, 171-185, 1987) and Mann et al. (AIDS Research and Human Retroviruses, 253-255, 1989) anti-viral assays of acute HIV-1 infection were performed in the H9 cell line. Cultures were batch infected in 1 ml of RPM1 1640 media/10% fetal calf serum containing 10^7 cells and 10^5 infectious doses of HIV-1iiib for an effective multiplicity of infection of 0.01. After 2 hours of viral absorption, cells were washed once and plated in 96-well microtiter plates at a density of 10^4 cells per well. Test compounds were added to produce the desired concentration of drug and 0.2% DMSO in a final volume of 200 µl. Uninfected parallel cultures were maintained for XTT cytotoxicity assay at 7 days post infection. Cultures were tested for viral replication by reverse transcriptase assay at 4 and 7 days post infection.

HIV-I Protease = target: T1, HIV-I Protease (Human immunodeficiency virus type 1 group M subtype B, UniProt P04585); assay: HIV protease inhibition (hydrolysis of undecapeptide substrate, HPLC readout); format: biochemical; conditions: 40 µM substrate, pH 4.7, 37 °C, 5 minutes; read-out: 50% Inhibition Concentration (Averaged)
T1 construct: HIV-I Protease: The enzyme is obtained from Bachem Bioscience Inc; purchased Bachem Bioscience Inc
Procedure: • DTT Buffer: 1.0 mM dithiothreitol (DTT) was prepared fresh daily in 0.1% polyethylene glycol (mw 8000) 80 mM NaOAc, 160 mM NaCl, 1.0 mM EDTA, and brought to pH 4.7 with HCl. • HIV-I Protease: The enzyme is obtained from Bachem Bioscience Inc. The undiluted enzyme is thawed from -80 °C and diluted 50-fold with DTT buffer. The solution is always kept at 0 °C on ice water and used in the experiment within 20 minutes after thawing. • Enzyme Substrate: Substrate III from Bachem Bioscience Inc. is the undecapeptide H-His-Lys-Ala-Arg-Val-Leu-p-Nitrophenylalanine-Glu-Ala-Norleucine-ser-NH2 (> 97 % purity). A 200. µM stock solution in DTT buffer is prepared and stored on ice. Substrate solution is prepared fresh daily. • Test Compound: 10 mM inhibitor (I) in dimethyl sulfoxide (DMSO) is diluted to 200 µM with DTT buffer. From the 200 µM stock solution is made a 10 µM stock solution with 2% DMSO in DTT buffer. The two inhibitor solutions are used to make final [I] = 100, 50, 20, 10, 5, 2, 1, 0.5 and 0 µM with 2% DMSO in DTT buffer in each reaction well (total inhibitor volume of 50 µl).
To each reaction well is added 20 µl of substrate (final concentration of 40 µM), 50 µl of inhibitor (at a concentration such that final dilution will produce the test concentration) and 20 µl of DTT buffer. The reaction plate (96 wells) is incubated at 37 °C for at least 5 minutes.
10 µl of the diluted protease is added to the reaction well while the reaction plate is shaking. Once shaken for 10 seconds, the plate is returned to the heating block at 37 °C. (Final reaction volume = 100 µl.)
The reaction is incubated for 5 minutes at 37 °C. The reaction is stopped by placing the reaction plate on the shaker and adding 20 µl of 10% trifluoroacetic acid (TFA) and shaking for 10 seconds. The amount of proteolysis is then determined by separation of noncleaved substrate and two cleaved products with reverse-phase HPLC, while measuring absorbance at 220 nm to determine the relative peak areas of the three components. The relative peak areas are used to calculate % conversion to product as a function of inhibitor concentration. The data is plotted as % Control (the ratio of % conversion in the presence and absence of inhibitor x 100) versus inhibitor concentration and fit with the equation Y= 100/1+(X/IC50)^A, where IC50 is the inhibitor concentration at 50% inhibition and A is the slope of the inhibition curve.

[6] = read-out: minimum inhibitory concentration (MIC)

“3-[1-(Cyclohexylthio)-3-methylbutyl]-4-hydroxy-6-phenyl-2H-pyran-2-one [Example 128]” was tested, and the “minimum inhibitory concentration (MIC)” value [1] was 25 µg/mL, the “minimum inhibitory concentration (MIC)” value [2] was 12.5 µg/mL and the “minimum inhibitory concentration (MIC)” value [3] was 25 µg/mL. The “minimum inhibitory concentration (MIC)” value [4] was 12.5 µg/mL and the “minimum inhibitory concentration (MIC)” value [5] was 25 µg/mL.
Work on `Cc1cc(C)cc(-c2cc(O)c(SCc3ccccc3)c(=O)o2)c1` [Example 56, 6-(3,5-Dimethylphenyl)-4-hydroxy-3-[(phenylmethyl)-thio]-2H-pyran-2-one] yielded a pEC50 (HIV-1iiib) of 4.54 and a pIC50 (HIV-I Protease) of 6.89.
Work on `O=c1oc(-c2ccc(OCc3ccccc3)cc2)cc(O)c1SCCc1ccccc1` [Example 26, 4-Hydroxy-3-[(2-phenylethyl)thio]-6-[4-(phenylmethoxy)phenyl] 2-2H-pyran-2-one] yielded a pEC50 (HIV-1iiib) of 4.77 and a pIC50 (HIV-I Protease) of 6.48.
For `CC(C)c1ccccc1Sc1c(O)cc(-c2ccc(OCc3cccnc3)cc2)oc1=O` [Example 157, 4-Hydroxy-3-[(2-isopropylphenyl)thio]-6-[4-(pyridin-3-ylmethoxy)phenyl]-2H-pyran-2-one], the pEC50 (HIV-1iiib) was 6.19 and the pIC50 (HIV-I Protease) was 7.17.
In the case of `CC(C)(C)CC(SC1CCCCC1)c1c(O)cc(-c2ccccc2)oc1=O` (racemic) [Example 92, 3-[1-(Cyclohexylthio)-3,3-dimethylbutyl]-4-hydroxy-6-phenyl-2H-pyran-2-one], the MIC [1, 6] was 100 µg/mL (≈ 259 µM), the MIC [2, 6] was 25 µg/mL (≈ 64.7 µM) and the MIC [3, 6] was 50 µg/mL (≈ 129 µM). It also gave an MIC ([4]; UC76, read-out: minimum inhibitory concentration (MIC)) of 25 µg/mL (≈ 64.7 µM) and an MIC ([5]; Streptococcus pneumoniae, 5V1, read-out: minimum inhibitory concentration (MIC)) of 50 µg/mL (≈ 129 µM).
